# Assay results from article PMC8389922, “First-in-Class Cyclic Temporin L Analogue: Design, Synthesis, and Antimicrobial Assessment” (Journal of Medicinal Chemistry, 2021).
# Bridge positions count the residues as written; N and C are the ends. Square brackets hold non-standard residues; d marks the D form. Peptide text beside a SMILES is read from it.
# Assays:
# A. baumannii ATCC 19606 = type: cell-based, Acinetobacter baumannii
# Procedure, shortened: (§1)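 MICs were determined by broth microdilution, with bacteria at a final 1 × 10^6 CFU/mL and peptides tested from 100 to 0.78 μM.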
# S. aureus ATCC 25923 = type: cell-based, Staphylococcus aureus
# Procedure, shortened: as §1
# [1] = CD spectroscopy, secondary structure content (DichroWeb); type: physicochemical; details: for helix-1 (regular α-helix) / helix-2 (distorted α-helix) / random / β-strand-1 (regular β-strand) / β-strand-2 (distorted β-strand) / β-turn: peptide 50 μM, 25 °C
# Protocol: The secondary structures of the linear peptide 9 and its stapled analogues 12, 17, and 24–26 were explored by circular dichroism (CD). CD spectroscopy studies were performed in water, and SDS or DPC micelles (20 mM) were used as mimics of the bacterial or mammalian membranes, respectively.[60]
# The secondary structure content was predicted based on the CD spectra from 190 to 260 nm using the online server for protein secondary structure analyses, DichroWeb.[61] […] The hydrocarbon-bridged peptide 25 was slightly helical and structured in water, with weak ellipticity at 220 nm. Peptide 25 contains ∼13% regular helix and ∼10% distorted helix, according to the DichroWeb prediction.
# All spectra were measured in the 260–190 nm spectral range, 1 nm bandwidth, 4 accumulations, and 100 nm/min scanning speed.[60] Each peptide was dissolved in water to prepare a 1 mM peptide stock solution. The CD spectra were performed in water, in SDS (20 mM) and in DPC (20 mM) using a peptide concentration of 50 μM. The secondary structure content of the peptides was predicted using the online server for protein secondary structure analyses DichroWeb.[61] Input and output units and the wavelength step were θ (mdeg) and 1.0 nm, respectively. The algorithm used was CONTIN-LL,[83] and reference database was set-7. When we have NRMSD > 0.100, we used the CDSSTR method.[83]
# E. coli ATCC 25922 = type: cell-based, Escherichia coli
# Procedure, shortened: as §1
# B. megaterium Bm11 = type: cell-based, Bacillus megaterium
# Procedure, shortened: as §1
# P. aeruginosa ATCC 27853 = type: cell-based, Pseudomonas aeruginosa
# Procedure, shortened: as §1
# [2] = Thioflavin T aggregation in LUVs; type: physicochemical; details: tested 5–50 μM, 25 °C, pH 7.4, ThT emission 482 nm; for peptide concentration at which oligomerization (ThT fluorescence plateau) was observed: DOPE/DOPG/CL (63/23/12) LUVs; for peptide concentration at which aggregation (increase of ThT fluorescence) was observed: DOPG/CL (58/42) LUVs
# Description: We used large unilamellar vesicles (LUVs) made of phosphatidylethanolamine (DOPE), phosphatidylglycerol (DOPG), and cardiolipin (CL) (63/23/12) to mimic lipid composition of the cytoplasmic membrane of Gram-negative bacteria. Gram-positive membranes were otherwise mimicked using LUVs made of DOPG and CL (58/42).
# TEXT PRINTED IN THE PICTURE: (c) 9: DOPG/CL mimicking Gram-positive membrane: θ222/ θ208: 1.7 | (c) 12: DOPG/CL mimicking Gram-positive membrane: θ222/ θ208: 2.6 | (c) 17: DOPG/CL mimicking Gram-positive membrane: θ222/ θ208: 1.9 | (f) 9: DOPE/DOPG/CL mimicking Gram-negative membrane: θ222/ θ208: 1.8 | (f) 12: DOPE/DOPG/CL mimicking Gram-negative membrane: θ222/ θ208: 2.1 | (f) 17: DOPE/DOPG/CL mimicking Gram-negative membrane: θ222/ θ208: 1.7
# The fluorescent dye Thioflavin T (ThT) is widely used to quantify peptide aggregation in the presence of bacterial membranes represented by LUVs (Gram-positive, DOPG/CL, 58/42 ratio in moles; Gram-negative DOPG/DOPE/CL, 63/23/12 ratio in moles). Once lipid films were prepared as described above, they were hydrated with 100 mM NaCl, 10 mM Tris-HCl, […] ThT buffer, pH = 7.4, vortexed for 1 h, freeze-thawed six times, and extruded 10 times through polycarbonate membranes with 0.1 μm diameter pores.[80] Peptides were dissolved in water to have a stock solution of 2 mM. Peptide aggregation was quantified by treating LUVs with peptide concentrations of 5, 10, 15, 20, 30, and 50 μM. Fluorescence was measured before and after the addition of peptide at 25 °C using a Varian Cary Eclipse fluorescence spectrometer. ThT fluorescence emission was measured at 482 nm (slit width, 5 nm) after excitation at 450 nm (slit width, 10 nm). In the presence of aggregated peptides, ThT combines with them giving an excitation maximum at 450 nm and an increased emission at 482 nm.[62] Peptide aggregation was calculated as %A = (Ff – F0)/(Fmax – F0) × 100, where Ff indicates the value of fluorescence after peptide addition, F0 is the initial fluorescence in the absence of peptide, and Fmax is the fluorescence maximum obtained immediately after peptide addition.
# [3] = tested on: S. epidermidis ATCC 12228; type: cell-based, Staphylococcus epidermidis
# Procedure, shortened: as §1
# [4] = CD in DPC micelles (20 mM), DichroWeb
# [5] = CD in SDS micelles (20 mM), DichroWeb
# [6] = CD in water, DichroWeb (CONTIN-LL, set-7; CDSSTR if NRMSD > 0.100)
SMILES,MIC A. baumannii ATCC 19606 (A. baumannii ATCC 19606),MIC S. aureus ATCC 25923 (S. aureus ATCC 25923),"helix-1 (regular α-helix) [1, 4]","helix-2 (distorted α-helix) [1, 4]","random [1, 4]","β-strand-1 (regular β-strand) [1, 4]","β-strand-2 (distorted β-strand) [1, 4]","β-turn [1, 4]","helix-1 (regular α-helix) [1, 5]","helix-2 (distorted α-helix) [1, 5]","random [1, 5]","β-strand-1 (regular β-strand) [1, 5]","β-strand-2 (distorted β-strand) [1, 5]","β-turn [1, 5]","helix-2 (distorted α-helix) ([1]; CD in water, DichroWeb)","random ([1]; CD in water, DichroWeb)","β-strand-1 (regular β-strand) ([1]; CD in water, DichroWeb)","β-strand-2 (distorted β-strand) ([1]; CD in water, DichroWeb)","β-turn ([1]; CD in water, DichroWeb)","helix-1 (regular α-helix) [1, 6]",further results
CC[C@H](C)[C@H](NC(=O)[C@H](CCCNC(=N)N)NC(=O)[C@@H]1CCCCn2cc(nn2)C[C@H](NC(=O)[C@H](Cc2ccccc2)NC(=O)[C@H](Cc2c[nH]c3ccccc23)NC(=O)[C@@H]2CCCN2C(=O)[C@@H](NC(=O)[C@@H](N)Cc2ccccc2)C(C)C)C(=O)N[C@@H](CCCCN)C(=O)N[C@@H](Cc2ccccc2)C(=O)NC(CC(C)C)C(=O)N1)C(=O)N[C@@H](CC(C)C)C(N)=O (stereo in doubt) [compound 17],25 µM,3.12 µM,38%,18%,19%,9%,7%,10%,32%,16%,16%,13%,7%,15%,4%,49%,19%,9%,16%,2%,MIC E. coli ATCC 25922 (E. coli ATCC 25922): >100 µM; MIC B. megaterium Bm11 (B. megaterium Bm11): 1.56 µM; MIC P. aeruginosa ATCC 27853 (P. aeruginosa ATCC 27853): >100 µM; peptide concentration at which oligomerization (ThT fluorescence plateau) was observed [2]: 10 µM; peptide concentration at which aggregation (increase of ThT fluorescence) was observed [2]: 50 µM; MIC S. epidermidis ATCC 12228 [3]: 1.56 µM
CC[C@H](C)[C@H](NC(=O)[C@H](CCCNC(=N)N)NC(=O)[C@@H]1CCC(=O)NCCCC[C@H](NC(=O)[C@H](Cc2ccccc2)NC(=O)[C@H](Cc2c[nH]c3ccccc23)NC(=O)[C@@H]2CCCN2C(=O)[C@@H](NC(=O)[C@@H](N)Cc2ccccc2)C(C)C)C(=O)N[C@@H](CCCCN)C(=O)N[C@@H](Cc2ccccc2)C(=O)N[C@H](CC(C)C)C(=O)N1)C(=O)N[C@@H](CC(C)C)C(N)=O [compound 12] (H-FVPWFKKF[dL]ERIL-NH2; lactam 6-10),3.12 µM,3.12 µM,54%,21%,13%,1%,4%,7%,58%,24%,5%,0%,3%,10%,2%,55%,18%,8%,15%,0%,"helix percentage (total) in SDS solution ([1]; CD in SDS micelles (20 mM), DichroWeb, regular plus distorted helix): about 80%; MIC E. coli ATCC 25922 (E. coli ATCC 25922): 25 µM; MIC B. megaterium Bm11 (B. megaterium Bm11): 1.56 µM; MIC P. aeruginosa ATCC 27853 (P. aeruginosa ATCC 27853): 100 µM; peptide concentration at which oligomerization (ThT fluorescence plateau) was observed [2]: 10 µM; peptide concentration at which aggregation (increase of ThT fluorescence) was observed [2]: 30 µM; MIC S. epidermidis ATCC 12228 [3]: 3.12 µM"
